According to US9340501B2, “Marinopyrrole derivatives as anticancer agents” (H. LEE MOFFITT CANCER CENTER AND RESEARCH INSTITUTE, INC., priority 2012, dated 2016):
Values joined by “and” are separate entries in the source; they are usually repeats but may differ in a detail not shown here. Equal entries are not always repeated. Where two headings read alike, the source gives them in different places.

What was measured:
MDA-MB-468 cells = test: In vitro anticancer assay against MDA-MB-468 cells; format: cell-based; settings: for inhibition at 0.5 µM: MDA-MB-468, 0.5 μM; for inhibition at 0.5 µM / inhibition at 50 µM / inhibition at 5 µM: read-out: % Inhibition at 0.5, 5, 50 μM; for inhibition at 50 µM: MDA-MB-468, 50 μM; for inhibition at 5 µM: MDA-MB-468, 5 μM
Method: The anticancer activities of the novel asymmetrical marinopyrroles described herein were evaluated against MDA-MB-468 cells (Table 1). IC50 values are reported in μM.

Mcl-1 = Mcl-1 (Homo sapiens, UniProt Q07820); settings: Tse et al. 2008; cited from earlier work
Bcl-2 = Bcl-2 (Homo sapiens, UniProt P10415); settings: Tse et al. 2008; cited from earlier work
Bcl-XL = Bcl-XL (Homo sapiens, UniProt Q07817); settings: Tse et al. 2008; cited from earlier work
[1] = Homo sapiens, MDA-MB-468, mean of the determinations, read-out: Mean IC50
[2] = Homo sapiens, MDA-MB-468, single determinations, read-out: IC50
[3] = single determinations, read-out: IC50
[4] = Homo sapiens, MDA-MB-468, estimated from % inhibition at 0.5, 5, 50 μM, read-out: Est. IC50
[5] = mean of the determinations, read-out: Mean IC50
[6] = estimated from % inhibition at 0.5, 5, 50 μM, read-out: Est. IC50

Mcl-1, sequence (Q07820 whole entry, species assumed): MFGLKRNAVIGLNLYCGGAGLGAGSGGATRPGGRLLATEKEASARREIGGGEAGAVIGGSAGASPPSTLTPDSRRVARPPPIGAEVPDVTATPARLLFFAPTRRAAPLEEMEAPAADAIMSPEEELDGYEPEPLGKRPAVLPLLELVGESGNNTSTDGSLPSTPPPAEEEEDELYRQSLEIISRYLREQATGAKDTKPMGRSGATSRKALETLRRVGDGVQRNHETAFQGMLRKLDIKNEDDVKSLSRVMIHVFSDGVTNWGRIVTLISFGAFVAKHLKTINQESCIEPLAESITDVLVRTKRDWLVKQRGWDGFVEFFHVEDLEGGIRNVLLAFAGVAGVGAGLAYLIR
Bcl-XL, sequence (Q07817 whole entry, species assumed): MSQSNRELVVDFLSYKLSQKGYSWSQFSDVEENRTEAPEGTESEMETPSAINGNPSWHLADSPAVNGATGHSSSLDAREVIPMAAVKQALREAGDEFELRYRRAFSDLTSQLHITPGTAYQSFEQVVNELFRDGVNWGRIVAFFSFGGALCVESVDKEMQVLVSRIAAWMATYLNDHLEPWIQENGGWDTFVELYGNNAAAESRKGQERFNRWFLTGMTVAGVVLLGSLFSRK
Bcl-2, sequence (P10415 whole entry, species assumed): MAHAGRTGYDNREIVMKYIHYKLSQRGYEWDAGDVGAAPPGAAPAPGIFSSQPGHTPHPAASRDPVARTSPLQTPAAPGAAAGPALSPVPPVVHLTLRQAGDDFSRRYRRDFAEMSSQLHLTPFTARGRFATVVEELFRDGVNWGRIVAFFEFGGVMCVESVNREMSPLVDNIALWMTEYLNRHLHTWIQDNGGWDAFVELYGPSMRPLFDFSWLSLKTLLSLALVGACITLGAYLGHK

With `COc1ccccc1C(=O)c1[nH]c(Cl)c(Cl)c1-n1c(C(=O)c2cc(F)ccc2OC)cc(Cl)c1Cl` [Compound 7] the IC50 (MDA-MB-468 cells; [1]) was 11000 nM, the IC50 (MDA-MB-468 cells; [2]) was 11700 nM and the IC50 (MDA-MB-468 cells; [3]) was 10200 nM.

`O=C(c1ccccc1O)c1[nH]c(Cl)c(Cl)c1-n1c(C(=O)c2ccc(Cl)cc2O)cc(Cl)c1Cl` [Compound 2, (4-Chloro-2-hydroxyphenyl)(4,4′,5,5′-tetrachloro-2′-(2-hydroxybenzoyl)-1′H-1,3′-bipyrrol-2-yl)methanone] gave an IC50 (MDA-MB-468 cells; [1]) of 1450 nM, an IC50 (MDA-MB-468 cells; [2]) of 1720 nM and an IC50 (MDA-MB-468 cells; [3]) of 1170 nM.

Molecule `CCOC(=O)c1[nH]c(Cl)c(Cl)c1-n1c(C(=O)c2ccccc2O)cc(Cl)c1Cl` [Compound 37] has an IC50 (MDA-MB-468 cells; [2]) of 15700 nM.

`O=C(c1ccccc1O)c1[nH]c(Cl)c(Cl)c1-n1c(C(=O)c2cc(Cl)ccc2O)cc(Cl)c1Cl` [Compound 1, (5-Chloro-2-hydroxyphenyl)(4,4′,5,5′-tetrachloro-2′-(2-hydroxybenzoyl)-1′H-1,3′-bipyrrol-2-yl)methanone] gave an inhibition at 0.5 µM (MDA-MB-468 cells; Homo sapiens) of 1.6%, an inhibition at 50 µM (MDA-MB-468 cells; Homo sapiens) of 98.3% and an IC50 (MDA-MB-468 cells; [4]) of 9000 nM.

For `O=C(c1ccccc1O)c1[nH]c(Cl)c(Cl)c1-n1c(C(=O)c2ccccc2O)cc(Cl)c1Cl` [(−)-Marinopyrrole A, reference compound], the IC50 (MDA-MB-468 cells; [5]) was 3170 nM and the IC50 (MDA-MB-468 cells; [3]) was 3470 nM and 2870 nM.

Work on `O=C(c1ccccc1O)c1[nH]c(Cl)c(Cl)c1-n1c(C(=O)c2cccc(Cl)c2O)cc(Cl)c1Cl` [Compound 3, (3-Chloro-2-hydroxyphenyl)(4,4′,5,5′-tetrachloro-2′-(2-hydroxybenzoyl)-1′H-1,3′-bipyrrol-2-yl)methanone] yielded an inhibition at 0.5 µM (MDA-MB-468 cells; Homo sapiens) of 7%, an inhibition at 5 µM (MDA-MB-468 cells; Homo sapiens) of 83.4% and an inhibition at 50 µM (MDA-MB-468 cells; Homo sapiens) of 100%. For the same molecule, the IC50 (MDA-MB-468 cells; [4]) was 1000 nM, the IC50 (MDA-MB-468 cells; [1]) was 2170 nM and the IC50 (MDA-MB-468 cells; [2]) was 1950 nM. It also gave an IC50 (MDA-MB-468 cells; [3]) of 2390 nM.

With `O=C(c1ccccc1O)c1[nH]c(Cl)c(Cl)c1-n1c(C(=O)c2ccccc2O)cc(Cl)c1Cl` [(+)-Marinopyrrole A, reference compound] the IC50 (MDA-MB-468 cells; [5]) was 1880 nM and the IC50 (MDA-MB-468 cells; [3]) was 2140 nM and 1640 nM.

With `O=C(c1ccccc1O)c1[nH]c(Cl)c(Cl)c1-n1c(C(=O)c2c(O)cccc2F)cc(Cl)c1Cl` [Compound 32] the “% Inhibition at 0.5, 5, 50 μM” value (MDA-MB-468 cells; 0.5 μM) was 0%, the “% Inhibition at 0.5, 5, 50 μM” value (MDA-MB-468 cells; 50 μM) was 87.7% and the IC50 (MDA-MB-468 cells; [6]) was 12000 nM.

With `O=C(c1ccccc1O)c1[nH]c(Cl)c(Cl)c1-n1c(C(=O)c2c([O-])cccc2F)cc(Cl)c1Cl.[Na+]` [Compound 27] the “% Inhibition at 0.5, 5, 50 μM” value (MDA-MB-468 cells; 0.5 μM) was 3.9%, the inhibition at 50 µM (MDA-MB-468 cells; Homo sapiens) was 96.3% and the IC50 (MDA-MB-468 cells; [6]) was 25000 nM.

Work on `COc1ccccc1C(=O)c1[nH]c(Cl)c(Cl)c1-n1c(C(=O)c2cccc(Cl)c2O)cc(Cl)c1Cl` [Compound 21] yielded an inhibition at 0.5 µM (MDA-MB-468 cells; Homo sapiens) of -0.4%, an inhibition at 50 µM (MDA-MB-468 cells; Homo sapiens) of 99.1% and an IC50 (MDA-MB-468 cells; [4]) of 25000 nM.

`O=C(c1ccccc1O)c1[nH]c(Cl)c(Cl)c1-n1c(C(=O)c2ccc(F)cc2O)cc(Cl)c1Cl` [Compound 30] gave an inhibition at 0.5 µM (MDA-MB-468 cells; Homo sapiens) of 10.8%, an inhibition at 5 µM (MDA-MB-468 cells; Homo sapiens) of 78.6% and an inhibition at 50 µM (MDA-MB-468 cells; Homo sapiens) of 94.7%. For the same molecule, the IC50 (MDA-MB-468 cells; [4]) was 1000 nM, the IC50 (MDA-MB-468 cells; [1]) was 1040 nM and the IC50 (MDA-MB-468 cells; [2]) was 940 nM. It also gave an IC50 (MDA-MB-468 cells; [3]) of 1140 nM.

Molecule `COc1ccc(F)cc1C(=O)c1cc(Cl)c(Cl)n1-c1c(C(=O)O)[nH]c(Cl)c1Cl` [Compound 34] has an IC50 (MDA-MB-468 cells; [2]) of 33500 nM.

In the case of `COc1ccccc1C(=O)c1[nH]c(Cl)c(Cl)c1-n1c(C(=O)c2ccc(Cl)cc2OC)cc(Cl)c1Cl` [Compound 5, (4-Chloro-2-methoxyphenyl)(4,4′,5,5′-tetrachloro-2′-(2-methoxybenzoyl)-1′H-[1,3′-bipyrrole]-2-yl)methanone], the IC50 (MDA-MB-468 cells; [1]) is reported as 13200 nM, the IC50 (MDA-MB-468 cells; [2]) is reported as 14000 nM and the IC50 (MDA-MB-468 cells; [3]) is reported as 12400 nM.

In the case of `CC1(C)CCC(c2ccc(Cl)cc2)=C(CN2CCN(c3ccc(C(=O)NS(=O)(=O)c4ccc(N[C@H](CCN5CCOCC5)CSc5ccccc5)c(S(=O)(=O)C(F)(F)F)c4)cc3)CC2)C1` [ABT-263], the “activity on Mcl-1” value (Mcl-1) is given as “only weakly target Mcl-1”, the “concentration that inhibits Bcl-2” value (Bcl-2) is given as “subnanomolar concentrations” and the “concentration that inhibits Bcl-XL” value (Bcl-XL) is given as “subnanomolar concentrations”.

Molecule `O=C(c1ccccc1O)c1[nH]c(Cl)c(Cl)c1-n1c(C(=O)c2cc(F)ccc2O)cc(Cl)c1Cl` [Compound 8] has an IC50 (MDA-MB-468 cells; [1]) of 2140 nM, an IC50 (MDA-MB-468 cells; [2]) of 2230 nM and an IC50 (MDA-MB-468 cells; [3]) of 2050 nM.

Molecule `COc1ccccc1C(=O)c1[nH]c(Cl)c(Cl)c1-n1c(C(=O)c2cc(Cl)c3ccccc3c2O)cc(Cl)c1Cl` [Compound 11] has an IC50 (MDA-MB-468 cells; [2]) of 10700 nM.

With `COc1cc(OC)c(C(=O)c2cc(Cl)c(Cl)n2-c2c(C(=O)c3ccccc3OC)[nH]c(Cl)c2Cl)cc1Cl` [Compound 9] the IC50 (MDA-MB-468 cells; [2]) was 20400 nM.

Work on `COc1ccccc1C(=O)c1[nH]c(Cl)c(Cl)c1-n1c(C(=O)c2cc(F)ccc2O)cc(Cl)c1Cl` [Compound 25] yielded an inhibition at 0.5 µM (MDA-MB-468 cells; Homo sapiens) of 2.4%, an inhibition at 50 µM (MDA-MB-468 cells; Homo sapiens) of 95.7% and an IC50 (MDA-MB-468 cells; [4]) of 28000 nM.

In the case of `O=C(c1ccccc1O)c1[nH]c(Cl)c(Cl)c1-n1c(C(=O)c2cc(Br)ccc2O)cc(Cl)c1Cl` [Compound 33], the inhibition at 0.5 µM (MDA-MB-468 cells; Homo sapiens) is reported as 10.8%, the inhibition at 5 µM (MDA-MB-468 cells; Homo sapiens) is reported as 58.7% and the inhibition at 50 µM (MDA-MB-468 cells; Homo sapiens) is reported as 99.3%. The IC50 (MDA-MB-468 cells; [4]) was 2000 nM and the IC50 (MDA-MB-468 cells; [2]) was 3870 nM.

`COc1ccc(C(=O)c2[nH]c(Cl)c(Cl)c2-n2c(C(=O)c3ccc(OC)cc3)cc(Cl)c2Cl)cc1` [Compound 39] gave an IC50 (MDA-MB-468 cells; [2]) of 18300 nM.

`O=C(c1ccccc1O)c1[nH]c(Cl)c(Cl)c1-n1c(C(=O)c2cc3ccccc3c(Cl)c2O)cc(Cl)c1Cl` [Compound 10] gave an IC50 (MDA-MB-468 cells; [1]) of 1700 nM, an IC50 (MDA-MB-468 cells; [2]) of 1940 nM and an IC50 (MDA-MB-468 cells; [3]) of 1460 nM.

For `CN(C)CC[C@H](CSc1ccccc1)Nc1ccc(S(=O)(=O)NC(=O)c2ccc(N3CCN(Cc4ccccc4-c4ccc(Cl)cc4)CC3)cc2)cc1[N+](=O)[O-]` [ABT-737], the “activity on Mcl-1” value (Mcl-1) is given as “only weakly target Mcl-1”, the “concentration that inhibits Bcl-2” value (Bcl-2) is given as “subnanomolar concentrations” and the “concentration that inhibits Bcl-XL” value (Bcl-XL) is given as “subnanomolar concentrations”.

For `O=C(c1ccccc1O)c1[nH]c(Cl)c(Cl)c1-n1c(C(=O)c2ccccc2O)cc(Cl)c1Cl` (racemic) [Racemic Marinopyrrole A, reference compound], the IC50 (MDA-MB-468 cells; [5]) was 2030 ± 180 nM and the IC50 (MDA-MB-468 cells; [3]) was 2190 nM and 1840 nM and 2070 nM.

Work on `O=C(c1ccccc1O)c1[nH]c(Cl)c(Cl)c1-n1c(C(=O)c2cc(Cl)c3ccccc3c2O)cc(Cl)c1Cl` [Compound 12] yielded an IC50 (MDA-MB-468 cells; [1]) of 1890 nM and an IC50 (MDA-MB-468 cells; [2]) of 1900 nM.

In the case of `O=C(c1ccccc1O)c1[nH]c(Cl)c(Cl)c1-n1c(C(=O)c2ccc(F)cc2[O-])cc(Cl)c1Cl.[Na+]` [Compound 31], the “% Inhibition at 0.5, 5, 50 μM” value (MDA-MB-468 cells; 0.5 μM) is reported as 5.6%, the “% Inhibition at 0.5, 5, 50 μM” value (MDA-MB-468 cells; 5 μM) is reported as 63.5% and the “% Inhibition at 0.5, 5, 50 μM” value (MDA-MB-468 cells; 50 μM) is reported as 99.4%. The IC50 (MDA-MB-468 cells; [6]) was 2000 nM, the IC50 (MDA-MB-468 cells; [5]) was 3150 nM and the IC50 (MDA-MB-468 cells; [3]) was 3970 nM and 2330 nM.

`COc1ccccc1C(=O)c1[nH]c(Cl)c(Cl)c1-n1c(C(=O)c2cccc3ccccc23)cc(Cl)c1Cl` [Compound 35] showed an IC50 (MDA-MB-468 cells; [2]) of 10500 nM.

In the case of `CCOC(=O)c1cc(Cl)c(Cl)n1-c1c(C(=O)c2ccccc2O)[nH]c(Cl)c1Cl` [Compound 38], the IC50 (MDA-MB-468 cells; [1]) is reported as 2090 nM, the IC50 (MDA-MB-468 cells; [2]) is reported as 2730 nM and the IC50 (MDA-MB-468 cells; [3]) is reported as 1440 nM.
